Measured values published in ChEMBL document CHEMBL4406866, “Design, synthesis and evaluation of 5-(4-hydroxyphenyl)-3H-1,2-dithiole-3-thione-Based fibrates as potential hypolipidemic and hepatoprotective agents” (Bioorg Med Chem Lett, 2019).
The source made the active and inactive calls. No cut-off for these calls is given here.

Tests used:
[1] = Drug metabolism in po dosed mouse plasma assessed as H2S release by measuring hydrogen sulfide level administered for 7 days and measured following 12 hrs fasting on day 7 (reference value: 52.9 +/- 5.4 umol/L); type: ADME, organism-based; conditions: in vivo
[2] = species: Mus musculus; conditions: at 13 mg/kg
Description: Hypolipidemic activity in Triton WR1339-induced hyperlipidemia mouse model assessed as decrease in serum TG level at 13 mg/kg, ig administered for one week and administered with Triton WR 1339 on day 6 and measured after 24 hrs

[3] = species: Mus musculus; conditions: at 13 mg/kg; remark: listed apart in the source
Description: Hypolipidemic activity in Triton WR1339-induced hyperlipidemia mouse model assessed as decrease in serum MDA level at 13 mg/kg, ig administered for one week and administered with Triton WR 1339 on day 6 and measured after 24 hrs

[4] = Drug metabolism in po dosed mouse liver assessed as H2S release by measuring hydrogen sulfide level administered for 7 days and measured following 12 hrs fasting on day 7 (reference value: 93.8 +/- 6.1 nmol/g); type: ADME, organism-based; conditions: in vivo
[5] = species: Mus musculus; conditions: at 13 mg/kg; remark: listed apart in the source
Description: Hypolipidemic activity in Triton WR1339-induced hyperlipidemia mouse model assessed as decrease in serum TC level at 13 mg/kg, ig administered for one week and administered with Triton WR 1339 on day 6 and measured after 24 hrs

[6] = system: Rattus norvegicus; test: Vasorelaxation activity in Met-induced hyperlipidemia rat model assessed as effect on serum ET-1 level at 9 mg/kg, po administered with compound for last 30 days during feeding of 0.2% Met solution for 60 days; type: functional, organism-based
[7] = Drug metabolism in Met-induced hyperlipidemia rat model assessed as H2S release by measuring increase in serum hydrogen sulfide level at 9 mg/kg, po administered with compound for last 30 days during feeding of 0.2% Met solution for 60 days; type: ADME, organism-based; conditions: in vivo
[8] = system: Rattus norvegicus; test: Hypolipidemic activity in Met-induced hyperlipidemia rat model assessed as decrease in serum Hcy level at 9 mg/kg, po administered with compound for last 30 days during feeding of 0.2% Met solution for 60 days; type: functional, organism-based
[9] = system: Rattus norvegicus; test: Hepatoprotective activity in Met-induced hyperlipidemia rat model assessed as improvement in hepatic tissue hemorrhagic symptoms at 9 mg/kg, po administered with compound for last 30 days during feeding of 0.2% Met solution for 60 days by microscopic analysis; type: functional, organism-based
[10] = system: Rattus norvegicus; test: Antioxidant activity in Met-induced hyperlipidemia rat model assessed as decrease in serum MDA level at 9 mg/kg, po administered with compound for last 30 days during feeding of 0.2% Met solution for 60 days; type: functional, organism-based
[11] = system: Rattus norvegicus; test: Hepatoprotective activity in Met-induced hyperlipidemia rat model assessed as decrease in serum AST level at 9 mg/kg, po administered with compound for last 30 days during feeding of 0.2% Met solution for 60 days; type: functional, organism-based
[12] = system: Rattus norvegicus; test: Antioxidant activity in Met-induced hyperlipidemia rat model assessed as increase in serum SOD level at 9 mg/kg, po administered with compound for last 30 days during feeding of 0.2% Met solution for 60 days; type: functional, organism-based
[13] = system: Rattus norvegicus; test: Upregulation of PPAR-alpha protein expression in liver of Met-induced hyperlipidemia rat model at 9 mg/kg, po administered with compound for last 30 days during feeding of 0.2% Met solution for 60 days; type: functional, organism-based
[14] = system: Rattus norvegicus; test: Hepatoprotective activity in Met-induced hyperlipidemia rat model assessed as decrease in inflammatory cell infiltration in liver at 9 mg/kg, po administered with compound for last 30 days during feeding of 0.2% Met solution for 60 days by microscopic analysis; type: functional, organism-based
[15] = system: Rattus norvegicus; test: Hypolipidemic activity in Met-induced hyperlipidemia rat model assessed as decrease in serum TG level at 9 mg/kg, po administered with compound for last 30 days during feeding of 0.2% Met solution for 60 days; type: functional, organism-based
[16] = system: Rattus norvegicus; test: Antiinflammatory activity in Met-induced hyperlipidemia rat model assessed as decrease in serum TNF-alpha level at 9 mg/kg, po administered with compound for last 30 days during feeding of 0.2% Met solution for 60 days by ELISA; type: functional, organism-based
[17] = system: Rattus norvegicus; test: Hepatoprotective activity in Met-induced hyperlipidemia rat model assessed as decrease in red lipid droplets in hepatocytes at 9 mg/kg, po administered with compound for last 30 days during feeding of 0.2% Met solution for 60 days by oil red O-staining based microscopic analysis; type: functional, organism-based
[18] = system: Rattus norvegicus; test: Hepatoprotective activity in Met-induced hyperlipidemia rat model assessed as decrease in serum ALT level at 9 mg/kg, po administered with compound for last 30 days during feeding of 0.2% Met solution for 60 days; type: functional, organism-based
[19] = system: Rattus norvegicus; test: Hypolipidemic activity in Met-induced hyperlipidemia rat model assessed as decrease in atherosclerosis index at 9 mg/kg, po administered with compound for last 30 days during feeding of 0.2% Met solution for 60 days; type: functional, organism-based
[20] = system: Rattus norvegicus; test: Antiinflammatory activity in Met-induced hyperlipidemia rat model assessed as decrease in serum IL-6 level at 9 mg/kg, po administered with compound for last 30 days during feeding of 0.2% Met solution for 60 days by ELISA; type: functional, organism-based
[21] = system: Rattus norvegicus; test: Hypolipidemic activity in Met-induced hyperlipidemia rat model assessed as decrease in serum TC level at 9 mg/kg, po administered with compound for last 30 days during feeding of 0.2% Met solution for 60 days; type: functional, organism-based
[22] = system: Rattus norvegicus; test: Antioxidant activity in Met-induced hyperlipidemia rat model assessed as increase in serum T-AOC level at 9 mg/kg, po administered with compound for last 30 days during feeding of 0.2% Met solution for 60 days; type: functional, organism-based
[23] = system: Rattus norvegicus; test: Hypolipidemic activity in Met-induced hyperlipidemia rat model assessed as increase in serum hydrogen sulfide level at 9 mg/kg, po administered with compound for last 30 days during feeding of 0.2% Met solution for 60 days; type: functional, organism-based

SMILES	Drug metabolism [1] [µmol/L]	inhibition [2]	inhibition [3]	Drug metabolism [4] [nmol/g]	inhibition [5]	also measured
CCC(Oc1ccc(-c2cc(=S)ss2)cc1)C(=O)OC (stereo unspecified)	128.8	Active	Active	159.5	–	–
COC(=O)CCCOc1ccc(-c2cc(=S)ss2)cc1	95.5	Active	Active	130.5	Active	–
COC(=O)C(C)(C)Oc1ccc(-c2cc(=S)ss2)cc1	113.4	Active	Active	165.6	Active	Activity [6]: inactive; Drug metabolism [7]: Metabolite_Detected; inhibition [8]: Active; Activity [9]: Active; inhibition [10]: Active; Activity [11]: Active; Activity [12]: Active; Activity [13]: Active; Activity [14]: Active; inhibition [15]: Active; inhibition [16]: Active; Activity [17]: Active; Activity [18]: Active; inhibition [19]: Active; inhibition [20]: Active; inhibition [21]: Active; Activity [22]: Active
COC(=O)C(C)Oc1ccc(-c2cc(=S)ss2)cc1 (stereo unspecified)	119.3	Active	–	164.8	–	–
COc1ccc(-c2cc(=S)ss2)cc1 [ANETHOLTRITHION]	184.6	inactive	Active	181.3	inactive	–
CC(C)OC(=O)C(C)(C)Oc1ccc(C(=O)c2ccc(Cl)cc2)cc1	–	–	–	–	–	Activity [23]: Active; Activity [11]: Active; Activity [13]: Active; Activity [17]: Active; Activity [18]: inactive
COC(=O)CCCCOc1ccc(-c2cc(=S)ss2)cc1	86.5	Active	–	155.5	Active	–
COC(=O)CCCCCOc1ccc(-c2cc(=S)ss2)cc1	93.7	Active	–	132.1	–	–
